Test results published in patent US5493007A, “Platelet aggregation inhibitors having high specificity for GPIIBIIIA” (Genentech, Inc., priority 1994, dated 1996).
pIC50: −log10 of the molar value. Values joined by “and” are separate entries in the source; they are usually repeats but may differ in a detail not shown here. Equal values may be shown once. *1 amine or outer side, *2 acyl side, *3 side chain or, on linkers, in order; H or OH if unused. Where a SMILES comes first, the peptide text is derived from it. Bridges are numbered along the chain shown (N, C = ends). [ ]: non-standard residue; d: D form. The star is where a group is joined. Ethylenediamine = C(CN[*:2])N[*:1]; Aad = N[C@@H](CCCC(=O)O)C(=O)O; NH(CH2)3NH2 = NCCCN*

Tests used:
[1] = target: human platelet rich plasma (PRP) (Homo sapiens, UniProt P05106+P08514); test: In Vitro Human Platelet Aggregation Assay; format: cell-based; conditions: human PRP; read-out: Human Platelet Aggregation IC50
In short: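 Citrated human PRP, diluted with PPP to about 300,000 platelets/μl from donors free of aspirin for two weeks, was preincubated with inhibitor or PBS for 5 minutes at 25° C. Aggregation was then triggered by collagen 1 μg/ml, U46619 100 ng/ml or ADP 17 μM and followed by light transmission.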

GP IIb IIIa = GP IIb IIIa (Homo sapiens, UniProt P05106+P08514); test: Fibrinogen-GP IIb IIIa Receptor ELISA Binding Assay; set-up: from tissue; host or cells: outdated human platelets; conditions: purified human platelet GP IIb IIIa, fibrinogen-coated plates; read-out: ELISA IC50 Fibrinogen GPIIb IIIa
Protocol: The method used is essentially that described in Nachman and Leung (J. Clin. Invest., 69:263-269 [1982]). The GP IIb IIIa is essentially purified as described in Fitzgerald et al., (Anal. Biochem. 151:169-177 [1985]).
Outdated human platelets are washed 3 times with 10 mM tris-HCl, 150 mM NaCl (TBS), 1 mM EDTA, pH 7.5, and centrifuged at 2000×g to pellet cells. Cells are lysed in 5 pellet volumes of TBS, 1% Triton X-100, 1 mM Ca2 Cl2, and followed by centrifugation at 30,000×g. The supernatant fraction is collected and the supernatant is loaded onto a concanavalin-A column, previously equilibrated in TBS, 1 mM Ca2 Cl2, 0.1% Triton, 0.05% NaN3 and eluted with 0.2M α-methylmannoside. Fractions are pooled and loaded onto a heparin-agarose column. The flowthrough is collected and concentration on an Amicon YM 30 filter to a volume of approximately 5-10 mi. The concentrate is then applied to an S-300 column (500 ml) and 6 ml fractions are collected. The GP IIb IlIa containing fractions are collected, pooled, and stored at -80° C.
The purification of fibrinogen is conducted essentially as described by Lipinska et al., (J. Lab. Clin. Med. 507, [1974]). Briefly, a 0.3% w/v solution of human fibrinogen (Kabi #5302) is dissolved in 150 mM NaCl. Saturated (NH4)2 SO4 is added dropwise with stirring to the fibrinogen solution to obtain about 16% saturation. The precipitate is spun down in appropriate size bottles at 2000×g. The supernatant is decanted and the precipitate resuspended in 150 mM NaCl (approximately 50% of the original volume). NH4 SO4 is again added dropwise to obtain 16% saturation. The suspension is spun down and the precipitate is resuspended in Tris-saline in a minimal volume (approximately 5% of the original volume). Any remaining insoluble material is spun down at 2000 rpm in a Sorval type centrifuge and the fibrinogen supernatant is decanted and dialyzed overnight at 4° C. against Tris-saline. Characterization of the fibrinogen is by the Bradford protein assay, SDS-PAGE, and/or Western blotting using well known standard procedures.
Briefly, 96 well plates are coated (Type Nunc 1 Maxisorp™) with 10 μg/ml purified fibrinogen (100 μl/well), and allowed to stand overnight at 4° C. The plates are washed three times with PBS Tween (0.137M NaCl, 0.003M KCl, 0.008M Na2 HPO4, 0.001M KH2 PO4, pH 7.4 at room temperature, 0.05% Tween-20) and blocked for 1 to 2 hours at room temperature with 200 μl/well TNCNT (which is 0.5% BSA, 20mM Tris, pH 7.5 at room temperature, 120 mM NaCl, 0.2% NAN3, 2mM CaCl2, 0.05% Tween 20, 0.5% BSA [Calbiochem RIA grade or better]) on a plate shaker. The plates are again washed three times with PBS/Tween and then 50 μl of sample in TNCNT is added. The mixture is incubated for 15 minutes at room temperature on a plate shaker. The stock solution of purified GP IIb IIIa receptor from human platelets, (0.4-1.0 mg/ml GP IIb IIIa in 0.1% Triton X-100, 1 mM CaCl2, 20 mM Tris, 150 mM NaCl, 0.05% NaN3 in 0.3M N-acetyl glucosamine pH 7.5, stored at -70° C.), is reconstituted to about 40 μg/ml in TNCNT. Fifty μl of this diluted GP IIb IIIa is then added to each well and incubated on a plate shaker at room temperature. After one hour, the plates are washed four times with PBS/Tween and 100 μl of a polyclonal or monoclonal antibody specific for GP IIIa such as AP3 (1 μg/ml) (See e.g. Newman et al., Blood, 65:227-232 [1985]) in ELISA buffer (PBS, 0.5% BSA, 0.05% Tween 20, 0.01% Thimerasol) is added. After a one hour incubation at room temperature on a plate shaker, the samples are washed 4 times with PBS/Tween. One hundred μl of GAM-HRP (horse radish peroxidase conjugate of goat anti-mouse IgG [Pel-Freeze Cat. 715305-1] dissolved in ELISA buffer) previously diluted to 1:10,000 is then added and the samples are incubated 1 hour at room temperature on a plate shaker. […]

Sequence of GP IIb IIIa (P08514 32-887 limits assumed): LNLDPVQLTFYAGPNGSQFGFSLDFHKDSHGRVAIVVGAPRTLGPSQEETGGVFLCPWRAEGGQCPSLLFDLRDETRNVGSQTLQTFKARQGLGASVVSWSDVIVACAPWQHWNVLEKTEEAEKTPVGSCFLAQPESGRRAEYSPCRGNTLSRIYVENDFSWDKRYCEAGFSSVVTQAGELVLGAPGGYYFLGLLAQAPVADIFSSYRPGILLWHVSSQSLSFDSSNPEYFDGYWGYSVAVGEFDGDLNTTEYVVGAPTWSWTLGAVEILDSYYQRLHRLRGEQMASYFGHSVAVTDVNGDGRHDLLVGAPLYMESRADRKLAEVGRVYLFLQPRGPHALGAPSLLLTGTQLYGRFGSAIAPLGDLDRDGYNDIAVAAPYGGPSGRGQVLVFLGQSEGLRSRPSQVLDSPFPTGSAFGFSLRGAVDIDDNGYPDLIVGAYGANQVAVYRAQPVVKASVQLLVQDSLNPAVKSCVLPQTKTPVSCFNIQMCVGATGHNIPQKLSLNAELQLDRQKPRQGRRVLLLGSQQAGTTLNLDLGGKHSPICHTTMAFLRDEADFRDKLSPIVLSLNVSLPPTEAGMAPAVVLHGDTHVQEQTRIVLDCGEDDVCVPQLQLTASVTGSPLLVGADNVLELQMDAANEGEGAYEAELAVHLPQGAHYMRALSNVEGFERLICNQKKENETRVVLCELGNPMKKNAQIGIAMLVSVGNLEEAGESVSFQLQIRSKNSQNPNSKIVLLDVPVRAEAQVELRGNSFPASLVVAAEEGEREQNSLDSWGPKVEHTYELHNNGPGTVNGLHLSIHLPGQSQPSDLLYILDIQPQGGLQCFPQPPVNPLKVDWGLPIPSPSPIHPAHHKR
Sequence of GP IIb IIIa (P08514 891-1039 partner limits assumed): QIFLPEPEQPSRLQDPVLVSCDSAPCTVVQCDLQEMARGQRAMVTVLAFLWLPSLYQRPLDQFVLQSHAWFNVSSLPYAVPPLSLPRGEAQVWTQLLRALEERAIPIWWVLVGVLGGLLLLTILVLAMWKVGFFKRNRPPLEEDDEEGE
Sequence of GP IIb IIIa (P05106 27-788): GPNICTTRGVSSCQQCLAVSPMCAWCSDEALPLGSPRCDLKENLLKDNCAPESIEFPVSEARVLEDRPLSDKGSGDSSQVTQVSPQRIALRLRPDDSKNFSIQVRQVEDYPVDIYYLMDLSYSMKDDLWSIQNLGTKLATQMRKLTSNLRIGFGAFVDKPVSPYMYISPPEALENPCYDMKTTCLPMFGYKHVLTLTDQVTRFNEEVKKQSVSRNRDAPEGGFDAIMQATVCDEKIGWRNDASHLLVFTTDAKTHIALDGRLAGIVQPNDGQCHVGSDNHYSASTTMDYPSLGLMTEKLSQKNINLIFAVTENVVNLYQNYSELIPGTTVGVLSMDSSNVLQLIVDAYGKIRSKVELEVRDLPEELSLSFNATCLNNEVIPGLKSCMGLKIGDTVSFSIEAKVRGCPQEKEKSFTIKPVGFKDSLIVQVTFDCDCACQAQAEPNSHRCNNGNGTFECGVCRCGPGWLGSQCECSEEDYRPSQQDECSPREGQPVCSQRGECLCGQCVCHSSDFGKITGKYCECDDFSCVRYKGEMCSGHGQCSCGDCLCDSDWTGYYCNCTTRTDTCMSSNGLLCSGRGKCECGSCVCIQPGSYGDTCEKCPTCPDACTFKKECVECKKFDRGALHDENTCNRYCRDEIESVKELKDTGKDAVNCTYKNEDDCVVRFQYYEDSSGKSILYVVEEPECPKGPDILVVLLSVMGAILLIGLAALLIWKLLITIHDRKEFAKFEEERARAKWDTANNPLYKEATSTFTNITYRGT
Sequence of human platelet rich plasma (PRP) (P08514 32-1039): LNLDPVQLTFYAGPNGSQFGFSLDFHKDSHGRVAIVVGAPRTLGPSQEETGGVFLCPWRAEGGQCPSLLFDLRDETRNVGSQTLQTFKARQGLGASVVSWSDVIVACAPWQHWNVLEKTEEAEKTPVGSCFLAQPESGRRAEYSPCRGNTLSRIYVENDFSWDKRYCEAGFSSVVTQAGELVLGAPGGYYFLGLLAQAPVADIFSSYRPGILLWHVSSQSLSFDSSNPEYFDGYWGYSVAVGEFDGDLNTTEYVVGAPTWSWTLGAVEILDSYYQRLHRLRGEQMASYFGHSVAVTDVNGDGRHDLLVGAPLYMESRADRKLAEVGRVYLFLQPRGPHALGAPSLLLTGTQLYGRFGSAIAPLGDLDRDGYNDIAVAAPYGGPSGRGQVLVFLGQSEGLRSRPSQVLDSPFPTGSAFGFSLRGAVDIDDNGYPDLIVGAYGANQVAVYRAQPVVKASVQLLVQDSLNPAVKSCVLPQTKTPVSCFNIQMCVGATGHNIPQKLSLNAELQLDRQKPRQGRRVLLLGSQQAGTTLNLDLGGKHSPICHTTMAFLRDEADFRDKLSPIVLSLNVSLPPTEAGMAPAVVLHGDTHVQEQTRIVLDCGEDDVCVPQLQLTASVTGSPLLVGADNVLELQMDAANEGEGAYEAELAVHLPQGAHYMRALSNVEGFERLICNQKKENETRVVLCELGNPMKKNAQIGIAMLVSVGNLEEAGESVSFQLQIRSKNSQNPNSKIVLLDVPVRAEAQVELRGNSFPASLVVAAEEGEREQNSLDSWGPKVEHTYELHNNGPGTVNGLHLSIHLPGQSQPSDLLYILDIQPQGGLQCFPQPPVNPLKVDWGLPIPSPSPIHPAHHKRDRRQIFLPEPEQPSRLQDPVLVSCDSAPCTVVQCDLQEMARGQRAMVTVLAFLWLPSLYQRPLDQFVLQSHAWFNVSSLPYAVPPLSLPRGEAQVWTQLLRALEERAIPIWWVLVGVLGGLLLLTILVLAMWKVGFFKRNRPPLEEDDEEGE
Sequence of human platelet rich plasma (PRP) (P05106 27-788): as the sequence (P05106 27-788) above

SMILES	pIC50 [1]	pIC50 (GP IIb IIIa)
N=C(N)NCCC[C@@H]1NC(=O)[C@@H](Cc2ccc(O)cc2)NC(=O)CSC[C@@H](C(=O)NCCCN)NC(=O)[C@H](CC(=O)O)NC(=O)CNC1=O [8/22, cyclo-S-acetyl-dTyr--Arg--Gly--Asp--Cys--NH--X (X = propyl amine)] ({CH2CO}-[dY]RGDC-{NH(CH2)3NH2}; thioether N-5)	6.41	7.82
N=C(N)NCCC[C@@H]1NC(=O)[C@@H](Cc2ccc(O)cc2)NC(=O)CSC[C@@H](C(=O)NCCN)NC(=O)[C@H](CC(=O)O)NC(=O)CNC1=O [8/23, cyclo-S-acetyl-dTyr--Arg--Gly--Asp--Cys--NH--X (X = ethyl amine)] ({CH2CO}-[dY]RGDC-Ethylenediamine; thioether N-5)	6.33	7.85
N=C(N)NCCC[C@H](NC(=O)[C@@H]1CCCC(=O)N[C@H](Cc2ccc(O)cc2)C(=O)N[C@@H](CCCNC(=N)N)C(=O)NCC(=O)N[C@@H](CC(=O)O)C(=O)N1)C(N)=O [10/19, cyclo(1-5)dTyr--Arg--Gly--Asp--L-α-aminoadipic acid-Arg--NH2] ([dY]RGD[Aad]R-NH2; lactam N-5)	6.74 and 6.69	8.05
N=C(N)NCCC[C@@H]1NC(=O)[C@@H](Cc2ccc(O)cc2)NC(=O)CCC[C@@H](C(=O)N[C@@H](CCCCN)C(N)=O)NC(=O)[C@H](CC(=O)O)NC(=O)CNC1=O [10/20, cyclo(1-5)dTyr--Arg--Gly--Asp--L-α-aminoadipic acid-Lys--NH2] ([dY]RGD[Aad]K-NH2; lactam N-5)	6.74	7.91
